Columns and labels:
[1] = compound: CC1=C(C(=NN1)C)CC2=C(C3=C(S2)N(C(=O)N(C3=O)C)CC(C)C)C(=O)N4C[C@@H](CO4)O + NC(=O)Nc1cc(-c2cccc(F)c2)sc1C(=O)N[C@H]1CCCNC1 [AZD7762] (partner 0.2 µM); experiment: relative viability (nuclei count vs DMSO), 5 days (fraction); higher = more cells survive
How it was run: (§1)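 Lung cancer cell lines in 1536-well plates were dosed by pin tool the day after seeding, either with one drug alone or with a fixed anchor-drug dose plus five library-drug doses (not always all listed) in √10 steps. After 5 days, cells were fixed and their nuclei stained in one step (final 0.05% Triton X-100, 1% formaldehyde, 1 ug/ml Hoechst), then counted on 4× images. Relative viability is the nuclei count in treated wells divided by that in vehicle wells. Values are medians of duplicate plates.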

[2] = compound: CC1=C(C(=NN1)C)CC2=C(C3=C(S2)N(C(=O)N(C3=O)C)CC(C)C)C(=O)N4C[C@@H](CO4)O + CC(=O)Nc1cccc(-n2c(=O)n(C3CC3)c(=O)c3c(Nc4ccc(I)cc4F)n(C)c(=O)c(C)c32)c1 [Trametinib] (partner 0.02 µM); experiment: as above
How it was run: as §1

In the case of 201T, the relative viability ([1]; first compound 0.0025 µM) is reported as 0.67, the relative viability ([1]; first compound 0.007906 µM) is reported as 0.673 and the relative viability ([1]; first compound 0.025 µM) is reported as 0.573. The relative viability ([1]; first compound 0.07906 µM) was 0.586, the relative viability ([1]; first compound 0.25 µM) was 0.677 and the relative viability ([2]; first compound 0.0025 µM) was 0.715. For the same cell line, the relative viability ([2]; first compound 0.007906 µM) was 0.708, the relative viability ([2]; first compound 0.025 µM) was 0.713 and the relative viability ([2]; first compound 0.07906 µM) was 0.739. For the same cell line, the relative viability ([2]; first compound 0.25 µM) was 0.694.

A-427 showed a relative viability ([1]; first compound 0.0025 µM) of 0.73, a relative viability ([1]; first compound 0.007906 µM) of 0.691 and a relative viability ([1]; first compound 0.025 µM) of 0.752. For the same cell line, the relative viability ([1]; first compound 0.07906 µM) was 0.847, the relative viability ([1]; first compound 0.25 µM) was 0.677 and the relative viability ([2]; first compound 0.0025 µM) was 0.748. The relative viability ([2]; first compound 0.007906 µM) was 0.754, the relative viability ([2]; first compound 0.025 µM) was 0.809 and the relative viability ([2]; first compound 0.07906 µM) was 0.754. For the same cell line, the relative viability ([2]; first compound 0.25 µM) was 0.763.

ABC-1 gave a relative viability ([1]; first compound 0.0025 µM) of 0.777, a relative viability ([1]; first compound 0.007906 µM) of 0.631 and a relative viability ([1]; first compound 0.025 µM) of 0.732. It also gave a relative viability ([1]; first compound 0.07906 µM) of 0.878 and a relative viability ([1]; first compound 0.25 µM) of 0.841.

With BEN the relative viability ([1]; first compound 0.0025 µM) was 0.637, the relative viability ([1]; first compound 0.007906 µM) was 0.631 and the relative viability ([1]; first compound 0.025 µM) was 0.599. It also gave a relative viability ([1]; first compound 0.07906 µM) of 0.51, a relative viability ([1]; first compound 0.25 µM) of 0.646 and a relative viability ([2]; first compound 0.0025 µM) of 0.955. For the same cell line, the relative viability ([2]; first compound 0.007906 µM) was 0.927, the relative viability ([2]; first compound 0.025 µM) was 0.922 and the relative viability ([2]; first compound 0.07906 µM) was 0.862. The relative viability ([2]; first compound 0.25 µM) was 0.826.

In the case of CAL-12T, the relative viability ([1]; first compound 0.0025 µM) is reported as 0.632, the relative viability ([1]; first compound 0.007906 µM) is reported as 0.578 and the relative viability ([1]; first compound 0.025 µM) is reported as 0.647. For the same cell line, the relative viability ([1]; first compound 0.07906 µM) was 0.6, the relative viability ([1]; first compound 0.25 µM) was 0.566 and the relative viability ([2]; first compound 0.0025 µM) was 0.402. The relative viability ([2]; first compound 0.007906 µM) was 0.464, the relative viability ([2]; first compound 0.025 µM) was 0.372 and the relative viability ([2]; first compound 0.07906 µM) was 0.379. For the same cell line, the relative viability ([2]; first compound 0.25 µM) was 0.405.

Cell Line COR-L23 has a relative viability ([2]; first compound 0.0025 µM) of 0.662, a relative viability ([2]; first compound 0.007906 µM) of 0.74 and a relative viability ([2]; first compound 0.025 µM) of 0.452. The relative viability ([2]; first compound 0.07906 µM) was 0.547 and the relative viability ([2]; first compound 0.25 µM) was 0.712.

COR-L 105 gave a relative viability ([2]; first compound 0.0025 µM) of 0.48, a relative viability ([2]; first compound 0.007906 µM) of 0.443 and a relative viability ([2]; first compound 0.025 µM) of 0.511. The relative viability ([2]; first compound 0.07906 µM) was 0.466 and the relative viability ([2]; first compound 0.25 µM) was 0.406.

Work on ChaGo-K-1 yielded a relative viability ([1]; first compound 0.0025 µM) of 0.938, a relative viability ([1]; first compound 0.007906 µM) of 0.919 and a relative viability ([1]; first compound 0.025 µM) of 0.855. It also gave a relative viability ([1]; first compound 0.07906 µM) of 0.823, a relative viability ([1]; first compound 0.25 µM) of 0.889 and a relative viability ([2]; first compound 0.0025 µM) of 0.94. For the same cell line, the relative viability ([2]; first compound 0.007906 µM) was 0.871, the relative viability ([2]; first compound 0.025 µM) was 0.889 and the relative viability ([2]; first compound 0.07906 µM) was 0.918. It also gave a relative viability ([2]; first compound 0.25 µM) of 0.916.

With EKVX the relative viability ([1]; first compound 0.0025 µM) was 0.803, the relative viability ([1]; first compound 0.007906 µM) was 0.721 and the relative viability ([1]; first compound 0.025 µM) was 0.761. The relative viability ([1]; first compound 0.07906 µM) was 0.517, the relative viability ([1]; first compound 0.25 µM) was 0.725 and the relative viability ([2]; first compound 0.0025 µM) was 0.397. The relative viability ([2]; first compound 0.007906 µM) was 0.339, the relative viability ([2]; first compound 0.025 µM) was 0.353 and the relative viability ([2]; first compound 0.07906 µM) was 0.246. The relative viability ([2]; first compound 0.25 µM) was 0.372.

Work on EMC-BAC-2 yielded a relative viability ([1]; first compound 0.0025 µM) of 1.21, a relative viability ([1]; first compound 0.007906 µM) of 1.2 and a relative viability ([1]; first compound 0.025 µM) of 1.07. It also gave a relative viability ([1]; first compound 0.07906 µM) of 1.19, a relative viability ([1]; first compound 0.25 µM) of 1.01 and a relative viability ([2]; first compound 0.0025 µM) of 0.902. It also gave a relative viability ([2]; first compound 0.007906 µM) of 0.904, a relative viability ([2]; first compound 0.025 µM) of 0.938 and a relative viability ([2]; first compound 0.07906 µM) of 0.892. For the same cell line, the relative viability ([2]; first compound 0.25 µM) was 0.986.

In the case of EPLC-272H, the relative viability ([1]; first compound 0.0025 µM) is reported as 0.252, the relative viability ([1]; first compound 0.007906 µM) is reported as 0.21 and the relative viability ([1]; first compound 0.025 µM) is reported as 0.225. It also gave a relative viability ([1]; first compound 0.07906 µM) of 0.144, a relative viability ([1]; first compound 0.25 µM) of 0.231 and a relative viability ([2]; first compound 0.0025 µM) of 0.317. The relative viability ([2]; first compound 0.007906 µM) was 0.236, the relative viability ([2]; first compound 0.025 µM) was 0.31 and the relative viability ([2]; first compound 0.07906 µM) was 0.295. For the same cell line, the relative viability ([2]; first compound 0.25 µM) was 0.352.

H3255 was tested, and the relative viability ([1]; first compound 0.0025 µM) was 0.929, the relative viability ([1]; first compound 0.007906 µM) was 0.927 and the relative viability ([1]; first compound 0.025 µM) was 0.755. For the same cell line, the relative viability ([1]; first compound 0.07906 µM) was 0.85, the relative viability ([1]; first compound 0.25 µM) was 0.936 and the relative viability ([2]; first compound 0.0025 µM) was 0.602. The relative viability ([2]; first compound 0.007906 µM) was 0.693, the relative viability ([2]; first compound 0.025 µM) was 0.671 and the relative viability ([2]; first compound 0.07906 µM) was 0.617. The relative viability ([2]; first compound 0.25 µM) was 0.681.

In the case of HARA, the relative viability ([1]; first compound 0.0025 µM) is reported as 0.281, the relative viability ([1]; first compound 0.007906 µM) is reported as 0.288 and the relative viability ([1]; first compound 0.025 µM) is reported as 0.324. For the same cell line, the relative viability ([1]; first compound 0.07906 µM) was 0.297, the relative viability ([1]; first compound 0.25 µM) was 0.218 and the relative viability ([2]; first compound 0.0025 µM) was 1.14. For the same cell line, the relative viability ([2]; first compound 0.007906 µM) was 0.991, the relative viability ([2]; first compound 0.025 µM) was 0.759 and the relative viability ([2]; first compound 0.07906 µM) was 0.662. For the same cell line, the relative viability ([2]; first compound 0.25 µM) was 0.782.

For HCC-15, the relative viability ([1]; first compound 0.0025 µM) was 1.34, the relative viability ([1]; first compound 0.007906 µM) was 1.37 and the relative viability ([1]; first compound 0.025 µM) was 1.13. For the same cell line, the relative viability ([1]; first compound 0.07906 µM) was 1.17, the relative viability ([1]; first compound 0.25 µM) was 1.29 and the relative viability ([2]; first compound 0.0025 µM) was 0.411. The relative viability ([2]; first compound 0.007906 µM) was 0.365, the relative viability ([2]; first compound 0.025 µM) was 0.378 and the relative viability ([2]; first compound 0.07906 µM) was 0.407. It also gave a relative viability ([2]; first compound 0.25 µM) of 0.415.

Cell Line HCC-44 has a relative viability ([1]; first compound 0.0025 µM) of 1, a relative viability ([1]; first compound 0.007906 µM) of 0.984 and a relative viability ([1]; first compound 0.025 µM) of 0.98. It also gave a relative viability ([1]; first compound 0.07906 µM) of 1.06, a relative viability ([1]; first compound 0.25 µM) of 1.07 and a relative viability ([2]; first compound 0.0025 µM) of 1.11. For the same cell line, the relative viability ([2]; first compound 0.007906 µM) was 1.08, the relative viability ([2]; first compound 0.025 µM) was 1.1 and the relative viability ([2]; first compound 0.07906 µM) was 1.05. It also gave a relative viability ([2]; first compound 0.25 µM) of 1.05.

Cell Line HCC-78 has a relative viability ([1]; first compound 0.0025 µM) of 0.538, a relative viability ([1]; first compound 0.007906 µM) of 0.588 and a relative viability ([1]; first compound 0.025 µM) of 0.555. The relative viability ([1]; first compound 0.07906 µM) was 0.529, the relative viability ([1]; first compound 0.25 µM) was 0.673 and the relative viability ([2]; first compound 0.0025 µM) was 0.796. The relative viability ([2]; first compound 0.007906 µM) was 0.77, the relative viability ([2]; first compound 0.025 µM) was 0.775 and the relative viability ([2]; first compound 0.07906 µM) was 0.663. For the same cell line, the relative viability ([2]; first compound 0.25 µM) was 0.811.

HCC-366 was tested, and the relative viability ([1]; first compound 0.0025 µM) was 0.271, the relative viability ([1]; first compound 0.007906 µM) was 0.361 and the relative viability ([1]; first compound 0.025 µM) was 0.297. For the same cell line, the relative viability ([1]; first compound 0.07906 µM) was 0.277, the relative viability ([1]; first compound 0.25 µM) was 0.378 and the relative viability ([2]; first compound 0.0025 µM) was 0.367. The relative viability ([2]; first compound 0.007906 µM) was 0.501, the relative viability ([2]; first compound 0.025 µM) was 0.376 and the relative viability ([2]; first compound 0.07906 µM) was 0.455. It also gave a relative viability ([2]; first compound 0.25 µM) of 0.324.

Source: the supplement of paper PMC10307832
